Source: ChEMBL document CHEMBL1151493, “Cholestane glycosides with potent cytostatic activities on various tumor cells from Ornithogalum saundersiae bulbs” (Bioorg Med Chem Lett, 1997)
≈ marks a conversion by molar mass, not a printed value.

Legend:
HL-60 [1] = experiment: Tested for the cytostatic activity as inhibitory concentration against leukemia HL-60 cells; type: functional, cell-based; settings: Homo sapiens
P388 = experiment: Tested for the cytostatic activity as inhibitory concentration against P-388 mouse leukemia cells; type: functional, cell-based
CCD 19Lu = experiment: Tested for the cytostatic activity as inhibitory concentration against CCD-19Lu (human normal pulmonary) cells; type: functional, cell-based
CCRF-CEM = experiment: Tested for the cytostatic activity as inhibitory concentration against CCRF-CEM human leukemia cells; type: functional, cell-based
Lu-99 cell line = experiment: Tested for the cytostatic activity as inhibitory concentration against Lu-99 human pulmonary large cell carcinoma; type: functional, cell-based
Mus musculus = experiment: Increased life span against mouse P388 leukemic cells after 0.01 mg/kg administration in mice; type: functional
A549 = experiment: Tested for the cytostatic activity as inhibitory concentration against A-549 human pulmonary adenocarcinoma cells; type: functional, cell-based
NCI-60 panel = experiment: Tested in vitro for cytostatic activity against 60-cell line; settings: Homo sapiens
P388/ADM = experiment: Tested for the cytostatic activity as inhibitory concentration against adriamycin resistant P-388 mouse leukemia cells; type: functional, cell-based
RERF-LC-AI = experiment: Tested for the cytostatic activity as inhibitory concentration against RERF-LC-AI human pulmonary squamous cell carcinoma; type: functional, cell-based
P388CPT = experiment: Tested for the cytostatic activity as inhibitory concentration against camptothecin resistant P-388 mouse leukemia cells; type: functional, cell-based
HL-60 [2] = experiment: Tested in vitro for cytostatic activity against 60-cell line; type: functional, Homo sapiens
Lu-65 = experiment: Tested for the cytostatic activity as inhibitory concentration against Lu-65 human pulmonary large cell carcinoma; type: functional, cell-based
Homo sapiens = species: Homo sapiens; experiment: Tested for hemolytic activity in human erythrocytes at 100 ug/ml; Not hemolytic; type: functional
FM3A = experiment: Tested for the cytostatic activity as inhibitory concentration against FM3A mouse mastrocarcinoma cells; type: functional, cell-based
[3] = Mus musculus, P388, read-out: IC50
[4] = Homo sapiens, CCD 19Lu, read-out: IC50
[5] = Homo sapiens, CCRF-CEM, read-out: IC50
[6] = Homo sapiens, Lu-99, read-out: IC50

Compound | IC50 (HL-60 [1]) [nM] | IC50 (P388; [3]) [ng/mL] | IC50 (CCD 19Lu; [4]) [ng/mL] | IC50 (CCRF-CEM; [5]) [ng/mL] | IC50 (Lu-99 cell line; [6]) [ng/mL] | also measured
CC(C)CCC(=O)[C@@H](C)[C@@]1(O)[C@@H](O[C@@H]2OC[C@H](O)[C@@H](O[C@@H]3OC[C@@H](O)[C@H](O)[C@@H]3O)[C@H]2O)C[C@H]2[C@@H]3CC=C4C[C@@H](O)CC[C@]4(C)[C@H]3CC[C@@]21C | 190 |  |  |  |  | 
CC(=O)O[C@H]1[C@H](O[C@H]2C[C@H]3[C@@H]4CC=C5C[C@@H](O)CC[C@]5(C)[C@H]4CC[C@]3(C)[C@@]2(O)[C@H](C)C(=O)CCC(C)C)OC[C@H](O)[C@H]1O[C@@H]1OC[C@@H](O)[C@H](O)[C@@H]1OC(=O)/C=C/c1ccccc1 | 0.29 |  |  |  |  | 
CC(=O)O[C@H]1[C@H](O[C@H]2C[C@H]3[C@@H]4CC=C5C[C@@H](O[C@@H]6O[C@@H](CO)[C@@H](O)[C@H](O)[C@@H]6O)CC[C@]5(C)[C@H]4CC[C@]3(C)[C@@]2(O)[C@H](C)C(=O)CCC(C)C)OC[C@H](O)[C@H]1O[C@@H]1OC[C@@H](O)[C@H](O)[C@@H]1OC(=O)/C=C/c1ccccc1 | 0.12 |  |  |  |  | 
COc1ccc(C(=O)O[C@@H]2[C@H](O[C@H]3[C@@H](OC(C)=O)[C@H](O[C@H]4C[C@H]5[C@@H]6CC=C7C[C@@H](O)CC[C@]7(C)[C@H]6CC[C@]5(C)[C@]4(O)[C@H](C)C(=O)CCC(C)C)OC[C@@H]3O)OC[C@@H](O)[C@@H]2O)cc1OC | 0.2 |  |  |  |  | 
COc1ccc(C(=O)O[C@@H]2[C@H](O[C@H]3[C@@H](OC(C)=O)[C@H](O[C@H]4C[C@H]5[C@@H]6CC=C7C[C@@H](O[C@@H]8O[C@@H](CO)[C@@H](O)[C@H](O)[C@@H]8O)CC[C@]7(C)[C@H]6CC[C@]5(C)[C@@]4(O)[C@H](C)C(=O)CCC(C)C)OC[C@@H]3O)OC[C@@H](O)[C@@H]2O)cc1 | 0.24 |  |  |  |  | 
CC[C@@]1(O)C(=O)OCc2c1cc1n(c2=O)Cc2cc3ccccc3nc2-1 [CAMPTOTHECIN] |  | 5 (≈ 14.4 nM) | 2000 (≈ 5740 nM) | 5 (≈ 14.4 nM) | 1 (≈ 2.87 nM) | 
COc1cccc2c1C(=O)c1c(O)c3c(c(O)c1C2=O)C[C@@](O)(C(=O)CO)C[C@@H]3O[C@H]1C[C@H](N)[C@H](O)[C@H](C)O1 [DOXORUBICIN] |  | 3 (≈ 5.52 nM) | 2000 (≈ 3680 nM) | 10 (≈ 18.4 nM) | 2 (≈ 3.68 nM) | 
COc1ccc(C(=O)O[C@@H]2[C@H](O[C@H]3[C@@H](OC(C)=O)[C@H](O[C@H]4C[C@H]5[C@@H]6CC=C7C[C@@H](O)CC[C@]7(C)[C@H]6CC[C@]5(C)[C@@]4(O)[C@H](C)C(=O)CCC(C)C)OC[C@@H]3O)OC[C@@H](O)[C@@H]2O)cc1 | 0.25 | 0.13 (≈ 0.149 nM) | 1500 (≈ 1720 nM) | 0.16 (≈ 0.183 nM) | 0.2 (≈ 0.229 nM) | ILS at 0.01 mg/kg (Mus musculus): 59%; IC50 (A549): 0.68 ng/mL (≈ 0.779 nM); IC50 (NCI-60 panel): 0.78 nM; IC50 (P388/ADM): 0.77 ng/mL (≈ 0.882 nM); IC50 (RERF-LC-AI): 0.26 ng/mL (≈ 0.298 nM); IC50 (P388CPT): 0.1 ng/mL (≈ 0.115 nM); IC100 (HL-60 [2]): 58 nM; IC50 (Lu-65): 0.2 ng/mL (≈ 0.229 nM); Activity (Homo sapiens): Not hemolytic; IC50 (FM3A): 0.16 ng/mL (≈ 0.183 nM)
CISPLATIN |  |  |  |  |  | IC50 (P388; p388): 50 ng/mL; IC50 (CCD 19Lu; ccd 19lu): 10000 ng/mL; IC50 (CCRF-CEM; ccrf-cem): 5 ng/mL; IC50 (Lu-99 cell line; lu-99): 1 ng/mL
CO[C@@]12[C@H](COC(N)=O)C3=C(C(=O)C(C)=C(N)C3=O)N1C[C@@H]1N[C@@H]12 [MITOMYCIN] |  | 10 (≈ 29.9 nM) | 2000 (≈ 5980 nM) | 20 (≈ 59.8 nM) | 10 (≈ 29.9 nM) | 
CC(=O)O[C@H]1C(=O)[C@@]2(C)[C@H]([C@H](OC(=O)c3ccccc3)[C@]3(O)C[C@H](OC(=O)[C@H](O)[C@@H](NC(=O)c4ccccc4)c4ccccc4)C(C)=C1C3(C)C)[C@]1(OC(C)=O)CO[C@@H]1C[C@@H]2O [PACLITAXEL] |  | 10 (≈ 11.7 nM) | 2000 (≈ 2340 nM) | 1 (≈ 1.17 nM) | 2 (≈ 2.34 nM) | 
